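A five-concentration, 48-hour dose response in 96-well plates underlies each endpoint, interpolated linearly between surrounding concentrations. The concentration for 50% growth inhibition is given as GI50. Definition used: TGI = concentration required for complete inhibition of growth.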
Key:
Assay in all cases: growth of human tumour cells (NCI), 48 h
786-0 renal = test system: 786-0 renal
COLO 205 colon = test system: COLO 205 colon
HCC-2998 colon = test system: HCC-2998 colon
RPMI-8226 leukemia = test system: RPMI-8226 leukemia
SK-MEL-2 melanoma = test system: SK-MEL-2 melanoma
SK-MEL-28 melanoma = test system: SK-MEL-28 melanoma
SK-MEL-5 melanoma = test system: SK-MEL-5 melanoma
SK-OV-3 ovarian = test system: SK-OV-3 ovarian
A549 NSCLC = test system: A549 NSCLC
HCT-116 colon = test system: HCT-116 colon

Row | SMILES | TGI (786-0 renal) [µM] | TGI (COLO 205 colon) [µM] | TGI (HCC-2998 colon) [µM] | TGI (RPMI-8226 leukemia) [µM] | TGI (SK-MEL-2 melanoma) [µM] | TGI (SK-MEL-28 melanoma) [µM] | TGI (SK-MEL-5 melanoma) [µM] | TGI (SK-OV-3 ovarian) [µM] | GI50 (786-0 renal) [µM] | GI50 (A549 NSCLC) [µM] | TGI (A549 NSCLC) [µM] | GI50 (COLO 205 colon) [µM] | GI50 (HCC-2998 colon) [µM] | GI50 (RPMI-8226 leukemia) [µM] | GI50 (SK-MEL-2 melanoma) [µM] | GI50 (SK-MEL-28 melanoma) [µM] | GI50 (SK-MEL-5 melanoma) [µM] | GI50 (SK-OV-3 ovarian) [µM] | TGI (HCT-116 colon) [µM] | GI50 (HCT-116 colon) [µM]
1 | COc1ccc2ccc3c(c2c1)CN1CCc2cc(OC)c(OC)cc2C1C3 (stereo not given) | > 100 | > 100 | > 100 | > 100 | > 100 | > 100 | > 100 | > 100 |  |  |  |  |  |  |  |  |  |  |  | 
2 | Cc1ccc(CS/C(=C\c2ccc([N+](=O)[O-])cc2)C(=O)c2ccc(F)cc2)cc1 | 4.99 | 16.6 | 8.42 | 3.51 | 40.5 | 26.5 | 5.98 | > 100 | 2.11 | 49.1 | > 100 | 3.72 | 2.73 | 0.458 | 15.3 | 5.46 | 2.4 | 17.7 |  | 
3 | CC1OC(n2cc(F)c(=O)[nH]c2=O)CCC1O (stereo not given) | > 100 | > 100 | > 100 | > 100 | > 100 | > 100 | > 56.2 | > 100 |  |  | > 100 |  |  |  |  |  |  |  | > 100 | 
4 | C[C@]12CC[C@H](O)CC1=CC[C@@H]1[C@@H]2CC[C@]2(C)C(c3cccnc3)=CC[C@@H]12 | > 100 | > 100 | > 100 | > 100 | > 100 | > 100 | > 100 | > 100 | 5.18 | > 100 | > 100 | > 100 | > 100 | 5.1 | 34.5 | 61.3 | 46.1 | > 33.8 | > 100 | 19.2
5 | Cc1nn(CN2CCN(C)CC2)c(=S)n1/N=C/c1cccc2ccccc12 | 44.6 | 26.6 | 39 | 39.9 | 39 | 34.3 | 32.1 | 42.3 | 21.3 | 20.6 | 46.7 | 10.8 | 20.9 | 17.4 | 20.1 | 17 | 16.9 | 16 | 35.6 | 18
6 | CCCCCCCCCCCCCC(=O)OC1CC(=O)OC1CO (stereo not given) | > 100 | > 100 | > 100 | > 100 | > 100 |  | > 100 | > 100 |  |  | > 100 |  |  |  |  |  |  |  | > 100 | 
7 | CC[CH2][Pb]([CH2]CC)([CH2]CC)[O]C(=O)C(F)(F)F | 0.376 | 0.374 | 0.343 | 0.403 | 0.462 | 0.452 | 0.264 | 1.09 | 0.165 | 0.172 | 0.563 | 0.164 | 0.163 | 0.0627 | 0.214 | 0.124 | 0.127 | 0.275 | 0.262 | 0.0798

— PubChem BioAssay (NCI)
